Values after ≈ are worked out from the molar mass of the structure shown. Where two headings read alike, the source gives them in different places. Blank lines part the entries; values can stand above or below the compound they belong to.
Experiments:
S. aureus DNA gyrase = biological target: T1, S. aureus DNA gyrase (Staphylococcus aureus, UniProt P20831); settings: cited from earlier work
T1 construct: purchased Inspiralis (Norwich, UK)

S. aureus = system: S. aureus; set-up: method as in PMID 31140866; settings: Figure 2, previous study ref 18; cited from earlier work
E. coli = system: E. coli; set-up: method as in PMID 31140866; settings: Figure 2, previous study ref 18; cited from earlier work
in vitro = settings: PAMPA
Experimental: (§1) Prior to the measurements of solubility and permeability isocratic HPLC methods were developed. […] The individual method parameters for each compound are given in the Supplementary Materials Table S1.
A 96-well precoated three-layer PAMPA plates (Corning® Gentest™ Pre-coated PAMPA Plate System, Corning, NY, USA) were used according to the manufacturer’s instructions and as described previously with 300 µL of the donor solutions in the bottom compartment and 200 µL of the acceptor solution (pH 7.4 PBS) in the upper compartment at 37 °C and a 4-h incubation time. The initial and end donor solutions were injected at a 5 µL injection volume. The initial donor solutions were also diluted 100-fold and injected at a 100 µL injection volume to serve as external references for the end acceptor solutions which were injected at the same injection volume. The permeability calculations were made with a manufacturer-provided Excel spreadsheet directly from the measured peak areas accounting for the relevant dilutions and injection volumes.

[1] = Equilibrium solubility at pH 6.8; settings: 37 °C, pH 6.8, aqueous buffer, thermodynamic from solid
Experimental: as §1
The vials were then placed in a homogenizer (Next Advance Bullet Blender, Troy, NY, USA) for 5 min ad speed setting “2” after which they were kept in a thermostated shaker (Tehtnica HeatMix, Domel, Slovenia) at 37 °C and 1200 RPM for 24 h. […] Twenty µL of these solutions were injected for the HPLC analysis by the described methods (Supplementary Materials Table S1). External standards for calibration were made in a mobile phase with 5% acetonitrile in a range of 30–90 mg/L and injected at 20 µL injection volumes.

E. coli (ATCC 25922) = assay: MIC broth microdilution, E. coli ATCC 25922; format: cell-based; settings: Escherichia coli, ATCC25922; read-out: MIC E. coli (ATCC 25922)
Experimental: (§2) Antimicrobial testing was carried out by the broth microdilution method in 96-well plate format following the Clinical and Laboratory Standards Institute (CLSI) guidelines and European Committee on Antimicrobial Susceptibility Testing (EUCAST) recommendations. Bacterial suspension of specific bacterial strain equivalent to 0.5 McFarland turbidity standard was diluted with cation-adjusted Mueller Hinton broth with TES (Thermo Fisher Diagnostic, Landsmeer, The Netherlands), to obtain a final inoculum of 10^5 CFU/mL. Compounds dissolved in DMSO and inoculum were mixed together and incubated for 18–20 h at 35 °C. Suspensions of Mycobacterium sp. were prepared into a tube of Middelbrook 7H9 broth supplemented with 5% OADC (Thermo Scientific, Trek Diagnostic Systems, West Sussex, UK) and incubated for at least 10 days. After incubation the minimal inhibitory concentration (MIC) values were determined by visual inspection as the lowest dilution of compounds showing no turbidity. Tetracycline was used as a positive control on every assay plate.

E. coli N43 (CGSC# 5583) = assay: MIC broth microdilution, E. coli N43; format: cell-based; settings: Escherichia coli, read-out: MIC E. coli N43 (CGSC# 5583)
Experimental: as §2

SMILES: COc1ccc2ncc(F)c(C[C@H](O)[C@@H]3CC[C@@H](NCc4cc5c(nn4)OCCS5)CO3)c2n1 [ACT3870424]
IC50 (S. aureus DNA gyrase; Table S2, supplement ref 4): 125 nM

SMILES: COc1ccc2nccc(NC(=O)C3CCC(NCc4cnn(-c5ccccc5)c4)CC3)c2c1 (stereo not shown) [Compound 131]
MIC S. aureus (S. aureus): 2 µg/mL (≈ 4.39 µM)
IC50 (S. aureus DNA gyrase; Table S2, supplement ref 1): 830 nM
MIC E. coli (E. coli): 64 µg/mL (≈ 140 µM)

SMILES: C[C@H]1O[C@@H](O[C@H]2[C@@H](O)C[C@H](O[C@H]3[C@@H](O)C[C@H](O[C@H]4CC[C@@]5(C)[C@H](CC[C@@H]6[C@@H]5C[C@@H](O)[C@]5(C)[C@@H](C7=CC(=O)OC7)CC[C@]65O)C4)O[C@@H]3C)O[C@@H]2C)C[C@H](O)[C@@H]1O [Di goxin, digoxin, reference compound]
PAMPA permeability classification [low/high] (in vitro): int erm ediat e
Papp (in vitro; pH 7.4): 0.58 ×10⁻⁶ cm/s
solubility thermodynamic at 24 h [1]: 52 µg/mL (≈ 66.6 µM)

SMILES: O=c1ccc2ncc(=O)n3c2n1C[C@H]3CN1CCC(NCc2cc3c(cn2)OCCC3)CC1 [Gepotidacin, reference compound]
MIC (E. coli (ATCC 25922)): 1 µg/mL (≈ 2.23 µM)
MIC (E. coli N43 (CGSC# 5583)): 0.016 µg/mL (≈ 0.0357 µM)

Papp at 4 h (in vitro): > 2.7 ×10⁻⁶ cm/s
Papp at 4 h (in vitro; pH 7.4): 4.2 ×10⁻⁶ cm/s
solubility thermodynamic at 24 h [1]: 30400 µg/mL (≈ 114000 µM)
SMILES: COCCc1ccc(OCC(O)CNC(C)C)cc1 (stereo not shown) [Metoprolol, metoprolol, reference compound]

SMILES: Cn1c(=O)c2[nH]cnc2n(C)c1=O [Theophylli n, theophylline, reference compound]
solubility thermodynamic at 24 h [1]: 8220 µg/mL (≈ 45600 µM)
